Source: EP1214345B1, “AGENTS FOR TREATING HUMAN DISEASES, ESPECIALLY FOR TREATING TUMORS SUCH AS COLONIC CANCERS AND MELANOMAS OR FOR REGENERATING TISSUE AND PROMOTING HAIR GROWTH” (MAX-DELBRÜCK-CENTRUM FÜR MOLEKULARE MEDIZIN, priority 1999, dated 2001)

Biological target: T1, Komplexbildung von β-Catenin und LEF-1 (Homo sapiens, UniProt P35222)
T1 construct: made in house
T1 sequence (P35222 1-781): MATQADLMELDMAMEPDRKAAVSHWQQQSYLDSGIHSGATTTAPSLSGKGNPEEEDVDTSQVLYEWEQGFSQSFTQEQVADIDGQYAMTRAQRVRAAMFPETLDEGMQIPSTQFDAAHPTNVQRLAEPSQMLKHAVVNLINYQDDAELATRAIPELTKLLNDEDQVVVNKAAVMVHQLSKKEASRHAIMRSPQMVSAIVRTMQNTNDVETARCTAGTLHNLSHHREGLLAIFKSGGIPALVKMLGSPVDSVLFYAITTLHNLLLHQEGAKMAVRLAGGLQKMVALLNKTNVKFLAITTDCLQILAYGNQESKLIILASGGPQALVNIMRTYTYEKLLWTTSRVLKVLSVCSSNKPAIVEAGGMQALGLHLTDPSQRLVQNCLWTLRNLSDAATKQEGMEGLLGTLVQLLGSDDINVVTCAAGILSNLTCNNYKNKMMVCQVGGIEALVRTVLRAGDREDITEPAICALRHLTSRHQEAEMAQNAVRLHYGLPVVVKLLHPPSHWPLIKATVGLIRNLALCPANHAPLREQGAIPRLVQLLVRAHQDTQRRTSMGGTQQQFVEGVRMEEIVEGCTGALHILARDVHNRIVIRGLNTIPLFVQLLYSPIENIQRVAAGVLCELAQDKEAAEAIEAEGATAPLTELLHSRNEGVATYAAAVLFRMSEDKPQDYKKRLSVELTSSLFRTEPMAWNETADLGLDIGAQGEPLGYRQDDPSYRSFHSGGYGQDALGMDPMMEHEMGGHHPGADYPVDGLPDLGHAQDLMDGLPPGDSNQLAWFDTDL
Test: ELISA for inhibition of complex formation of β-Catenin and LEF-1 (recombinant His-tagged proteins, detection with antibody PA2)
Format: binding
Details: recombinant LEF-1 adsorbed, 50-100 ng β-Catenin, 10% DMSO final, substances 1 µM to 10 mM, read-out: IC50 Hemmung der Komplexbildung von β-Catenin und LEF/TCF
Text: Im Einzelnen wurden folgende Untersuchungen durchgerührt: • 1. Identifizierung von separaten, essentiellen Bindungsstellen von β-Catenin für die Interaktion mit LEF-1/TCF-4, mit den 20 und 15 Aminosäure-Repeats von APC oder Conductin/Axin Basierend auf der Röntgen-Kristall-Strukturanalyse der Armadillo-Domäne von β-Catenin (Huber et al., 1997) wurden ausgewählte basische und aromatische Aminosäure-Reste durch Alanin-Reste substituiert und die Punktmutanten auf Interaktion mit den Bindungspartnern von β-Catenin im Hefe-2-Hybrid-System analysiert (Abb. 1). Die Mutationen, welche spezifische Interaktionen blockieren, bilden Cluster in separaten Subregionen der Domäne. Sie markieren die essentiellen Kontaktpunkte in den spezifischen Bindungsstellen für die Interaktion mit LEF/TCF (Lys 435, Arg 469, His 470, Lys 508, Arg 515), mit den 20 Aminosäure-Repeats von APC (Trp 383, Lys 345), mit den 15 Aminosäure-Repeats von APC (Arg 386), oder mit Conductin (Phe 253, His 260, Lys 292). Die erweiterten Interaktionsstellen sind der Abb 1 zu entnehmen. • 2. Analyse der Moleküloberfläche von β-Catenin im Bereich der essentiellen Bindungsstelle für LEF/TCF Ausgehend von den Daten zur Röntgenkristallstruktur von β-Catenin wurde mit den Programmen Grasp und LUDI (MSI) die Moleküloberfläche im Bereich der Bindungsstelle berechnet. Es ist hierdurch gelungen eine hydrophobe Tasche zu identifizieren (Abb.2), die von den folgenden Aminosäuren umrandet ist: Val 358, Met 363, Ala 391, Ala 392, Thr 393, Lys 394, Gln 395, Met 398, Leu 401, Leu 402, Ile 423, Asn 426, Leu 427, Thr 428, Cys 429, Asn 430, Asn 431, Asn 434, Met 437, Val 438. Diese Tasche lokalisiert in engster Nachbarschaft zu der essentiellen Bindungsstelle für LEF/TCF. Sie ist von großer Bedeutung für die Computer-gestützte Durchmusterung von Substanzbibliotheken zur Selektion von Molekülen, die in dieser Tasche binden. Die Idee primär hydrophobe Wechselwirkungen in der Tasche zum Ausgangspunkt zu wählen, hat den energetischen Vorteil, das die Substanzen nicht mit der Hydrathülle der geladenen Aminosäure-Reste der Oberfläche kompetieren müssen. Diese Substanzen stellen somit nach gezielter Modifikation potente Therapeutika zur Behandlung von Tumoren dar, da die Interaktion von LEF/TCF mit β-Catenin ein frühes Ereignis zur Entstehung von Tumoren darstellt. Sie wurden experimentell auf ihre Fähigkeit zur Hemmung der onkogenen Interaktion getestet (ELISA) und sollen modifiziert werden. Das molekulare Modellieren der Substanzen in der Tasche basiert auf der Idee, die Wechselwirkungen in der Tasche selbst zu stabilisieren und zusätzliche Kontakte zu den essentiellen Aminosäure-Resten der LEF/TCF-Bindungsstelle zu schaffen. Durch diese Strategie sollen die Substanzen in ihrer Wirkung optimiert werden. • 3. Identifizierung von Substanzen die in der hydrophoben Tasche binden Es wurden Computer-gestützt Substanzbibliotheken durchmustert und deren Moleküle auf stabilisierende Wechselwirkungen in der hydrophoben Tasche ausgewählt. Die ausgewählten Substanzen wurden auf Hemmung der Komplexbildung von β-Catenin und LEF-1 im ELISA experimentell getestet. […] Diese Kernstruktur besteht aus einem aromatischem Ring (beim Cefamandole am Kohlenstoffatom 17, Numerierung siehe "Positiv-Liste")), einer organischen Komponente, die der Struktur des Ala-Ala Dipeptides ähnelt, und einem β-Lactam- und Thiazolring. Mit dem aromatischen Ring wurde die Substanz in der beschriebenen hydrophoben Tasche eingepaßt. […]

| SMILES | IC50 |
| --- | --- |
| Cn1nnnc1SCC1=C(C(=O)O)N2C(=O)[C@@H](NC(=O)[C@H](O)c3ccccc3)[C@H]2SC1 [Cefamandole] | 25 µM |
| Cn1nnnc1SCC1=C(C(=O)O)N2C(=O)[C@@H](NC(=O)[C@H](OC=O)c3ccccc3)[C@H]2SC1 [Cefamandole-Nafate] | 50 to 100 µM |
| NC(=O)c1cc[n+](CC2=C(C(=O)O)N3C(=O)[C@@H](NC(=O)[C@@H](c4ccccc4)S(=O)(=O)[O-])[C@H]3SC2)cc1 [Cefsulodine] | 50 to 100 µM |
| CC1=C(C(=O)O)N2C(=O)[C@@H](NC(=O)[C@H](N)c3ccc(O)cc3)[C@H]2SC1 [Cefadroxil] | 50 to 100 µM |
| CCCCCCCCCCCCCCCCCC(=O)OC[C@H]1OC(O)[C@H](NC(C)=O)[C@@H](O[C@H](C)C(=O)N[C@@H](C)C(=O)N[C@H](CCC(=O)O)C(N)=O)[C@@H]1O (stereo partly drawn) [AC-(6-O-Stearoyl)-Muramyl-Ala-D-Isoglutamine] | 100 µM |
